pIC50: −log10 of the molar value. Entries after “also recorded” stand apart in the source; their conditions may differ.
Assays:
[1] = target: T1, Rad51 multimers (Homo sapiens, UniProt Q06609); assay: Gel filtration of Rad51 multimers; assay type: biochemical; details: Rad51:compound molar ratio 1:10
T1 sequence (Q06609 1-339): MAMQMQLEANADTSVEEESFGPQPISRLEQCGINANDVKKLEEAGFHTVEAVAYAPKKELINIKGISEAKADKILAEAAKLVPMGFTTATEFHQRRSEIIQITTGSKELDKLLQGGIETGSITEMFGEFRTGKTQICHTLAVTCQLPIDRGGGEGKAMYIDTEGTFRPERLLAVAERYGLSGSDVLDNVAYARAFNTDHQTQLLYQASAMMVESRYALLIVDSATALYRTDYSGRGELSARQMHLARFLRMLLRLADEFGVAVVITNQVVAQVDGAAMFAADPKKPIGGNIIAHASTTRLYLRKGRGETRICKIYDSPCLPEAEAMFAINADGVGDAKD
Excerpt: (§1) If the IBR compound indeed occupies the hydrophobic pocket for the entrance of Phe1524 in BRCA2, the oligomerization of Rad51 should also be affected since they share the same binding region. […] Therefore, if IBR2 mimics the BRC hairpin structure, the Rad51 multimerization will also be inhibited by IBR2. We compared the gel filtration profile of Rad51 between with and without IBR2. […] The inhibition of the Rad51 and BRC repeat binding was further analyzed by SPR technology in a solution competition format as previously described (see e.g., Science 303, 844-848).
Gel filtration: A mixture of Rad51 (3.2 μg) and small compound (molar ratio 1:10) was incubated for 15 minutes at 37° C., supplemented with buffer (50 mM triethanolamine-HCl [pH 7.5], 0.5 mM Mg (OAc)2, 1 mM dithiothreitol, 2 mM ATP, and 100 μg/ml BSA, total volume 20 μl) and incubated 15 more minutes. Then the mixture was loaded onto 2.4 ml Superdex 200 PC 3.2/30 columns (Pharmacia) equilibrated with the same buffer as described (Davies et al., 2001). Fractions (50 μl) were collected and 0.5 μl of each fraction was blotted onto PVDF membrane. Rad51 was detected using anti-Rad51 antibody (mAb 14B4).

[2] = system: human breast cancer xenograft (MDA-MB-468); assay: Tumor inhibition assay in nude mice; assay type: in vivo
Method: To test the inhibitory effect of IBR2 on the growth of established tumor xenografts in nude mice, we chose the human breast cancer cell line MDA-MB-468 for this study. Mice with tumor size of approximately 85 mm3 were treated with three doses of IBR2 (10, 50 and 150 mg/kg i.p.) every other day for up to five weeks.
Tumor inhibition assay in nude mice: 5×10^6 MDA-MB-468 cells in 100 μl of PBS were injected into mammary fat pad of 6-8 week old athymic female BALB/c-nude mice (nu/nu) (Charles River Laboratories). After tumors grew to 85 mm^3 (day 12), mice were randomized into four groups (n=5 per group) to receive intraperitoneal injection of IBR2 (10, 50, or 150 mg/kg) or vehicle (15% DMSO, 20% Tween 20, 10% PEG400, 55% saline) every other day for 5 weeks. Body weights of mice and tumor volumes were measured twice weekly during the course of drug treatment. A Student's t test was used to determine P value.

[3] = target: T2, Rad51-BRC repeat complex (Homo sapiens, UniProt Q06609); assay: SPR solution competition assay; assay type: binding; details: SPR solution competition format; read-out: median inhibitory concentration (IC50), displacement of BRC repeat from complex with Rad51
T2 sequence (Q06609 1-339): T1 sequence (Q06609 1-339)
Excerpt: as §1
Surface Plasmon Resonance binding assays: The assays were performed at 25° C. in HBSD buffer (10 mM HEPES, 150 mM NaCl, 0.1% DMSO) on Biacore3000 (Biacore Inc.). Sensor chips NTA or glutathione-modified CM5 were used to capture His-Rad51 or GST-BRC1, respectively. The capture level was about 130 resonance units at a flow rate of 5 μl/min. For sequential binding assays, chips were treated with compounds (1 μM) and then proteins (50 μg/ml). The retained resonance units (RU) were recorded and averaged from triplicate experiments. For competition assays (Vassilev et al., 2004), IBR2 was incubated with 50 μg/ml BRC at 25° C. for 15 minutes prior to use. Relative binding percentages were calculated with respect to the binding without IBR2 and averaged from two independent experiments.

[4] = system: IR-induced Rad51 foci in MCF-7 breast cancer cells; assay: IR-induced Rad51 foci formation (immunostaining); assay type: cell-based; details: MCF-7 cells
Method: These compounds were then tested for their effects on IR-induced Rad51 foci formation in MCF-7 breast cancer cells.
To test this possibility, the number of the MCF-7 cells that formed IR-induced Rad51 foci was measured after IBR2 treatment.
Immunostaining Rad51 and g-H2AX foci: MCF-7 cells were treated with 20 μM IBR2 for 7 or 19 hours and then g-irradiated at 20 Gy. Cells were incubated for an additional 5 hours with 20 μM IBR2, then fixed with 4% paraformaldehyde in PBS containing 0.5% Triton X-100. The fixed cells were incubated with a-Rad51 antibody (mAb 1F5) or a-g-H2AX antibody (Upstate). Rad51 and g-H2AX foci positive cells were subsequently counted as described (Chen et al., 1999).

[5] = system: non-small-cell lung carcinoma (CALU-1, A427, Sklu-1, CALU-6), osteosarcoma (SaoS2, U2OS) and glioblastoma (T98G) cell lines; assay: Proliferation of other cancer cell lines; assay type: cell-based; details: CALU-1, A427, Sklu-1, CALU-6, SaoS2, U2OS
[6] = system: CAPAN-1; assay: Sensitivity of BRCA2-truncated pancreatic cancer cell line; assay type: cell-based; details: preliminary results
Excerpt: The absence of BRCA2 in cells also appears to have a significant impact on Rad51 stability rendering them much more sensitive to IBR2 treatment. […] It is therefore contemplated that IBR2 may be particularly useful in treating cancer cells lacking functional BRCA2 (or having a reduced BRCA2 expression) albeit only a small fraction of cancer.

[7] = system: MCF-7 cells; assay: Cell cycle analysis by flow cytometry (FACS); assay type: cell-based; details: 20 μM IBR2, time-dependent
Method: To explore the mechanism of how IBR2 inhibits cancer cell growth, the inventors analyzed cell cycle progression of IBR2 treated MCF-7 cells by flow cytometry (FACS).
Cell cycle analysis by flow cytometry: To analyze cell cycle distribution, […] MCF-7 cells were seeded in 10-cm dishes for 24 hours and treated with […] IBR2 for various times. Cells were then trypsinized and fixed with 70% ethanol (−20° C.) and stained for 30 minutes with propidium iodide (PI) staining solution (Yun et al., 2005) (50 μg/ml PI, 0.1% sodium citrate, 50 μg/ml RNase A, 0.03% NP-40 in PBS). Flow cytometry analysis was performed using a FACScalibur flow cytometer and cell cycle distribution was analyzed with CellQuest software (Beckton Dickison). 10,000 events were analyzed for each sample and the experiment was repeated twice.

O=S(=O)(Cc1ccccc1)N1C=Cc2ccccc2C1c1c[nH]c2ccccc12 (stereo not drawn) [IBR2, 2-(benzylsulfonyl)-1-(1H-indol-3-yl)-1,2-dihydroisoquinoline]
Rad51 multimerization (gel filtration elution profile) [1]: dissociates Rad51 multimers
average body weights of nude mice ([2]; 10, 50 and 150 mg/kg i.p.): remained almost constant
toxicity to animals ([2]; 10, 50 and 150 mg/kg i.p.): without apparent toxicity to animals
retardation of tumor growth ([2]; 10, 50 and 150 mg/kg i.p. every other day up to five weeks, vs vehicle): up to 65%
tumorigenicity in nude mice ([2]; mouse, in vivo): significantly reduced tumorigenicity in nude mice
pIC50 [3]: ~6.94
IR-induced Rad51 foci formation [4]: dramatically reduced Rad51 foci formation; also recorded: significantly reduced IR-induced Rad51 foci formation
proliferation [5]: significantly inhibited
sensitivity of CAPAN-1 to IBR2 [6]: significant sensitivity
G1 fraction [7]: increased
S and G2/M fractions [7]: depleted
sub-G1 fraction (apoptotic cells) [7]: significantly increased
